{
  "source": "patent US20130224300A1",
  "about": "“COMPOSITIONS AND METHODS THEREOF FOR ORAL ADMINISTRATION OF DRUGS” (priority 2011, published 2013)",
  "assay": "Sumatriptan pharmacokinetics after oral gavage in cocoa butter with or without DDM",
  "format": "in vivo, beagle dogs",
  "conditions": "25 mg in cocoa butter with 1% DDM vs no-DDM control, dog, 0-180 min",
  "description": "The plot depicts serum concentrations of sumatriptan in a canine at zero through 180 min. following oral delivery (by gavage) of 25 mg sumatriptan in 1.0% DDM in a non-aqueous solution comprising cocoa butter. The solid circles represent plasma sumatriptan concentrations for doses not containing DDM (the control) and the solid squares show plasma sumatriptan concentrations for the sumatriptan doses containing DDM.\nSumatriptan, 2.5 g, was dissolved in 100 mL of cocoa butter at 45 deg. […] (in the liquid state) resulting in a solution having a sumatriptan concentration of 25 mg/mL. The solution was divided into two equal 50 mL portions. To one was added 500 mg DDM. Both solutions were kept at 45 degrees C. until the DDM is seen to have completely dissolved upon visual inspection yielding a 1% DDM solution in cocoa butter. The solutions were then cooled to about 4-10 degrees C. to allow the cocoa butter to solidify. One mL portions of the solidified cocoa butter-sumatriptan-DDM solution and one mL portions of the cocoa butter-sumatriptan (no DDM) control were formed into spherical balls and administered to beagle dogs by oral gavage. Blood samples were collected at timed intervals and plasma sumatriptan concentrations measured using a standard clinical assay.",
  "data": [
    {"smiles": "CNS(=O)(=O)Cc1ccc2[nH]cc(CCN(C)C)c2c1", "note": "[sumatriptan]", "values": [
      {"measurement": "increase in oral absorption based upon the relative AUC's", "value": "~19", "unit": "%"}
    ]}
  ]
}
